Tests used:
[1] = system: carrageenin-induced edema in the hind paw; assay: carrageenin-induced rat food edema test (inhibition of edema formation in the hind paw); assay type: in vivo, male albino rats
Protocol: A. Winter et al., Proc. Soc. Exp. Biol. Med., Vol. 111, p.
A. Winter et al., as earlier reported in the Proceedings of the Society of Experimental Biology and Medicine, Vol. 111, p. 544 (1962). In this test, anti-inflammatory activity is determined as the percent inhibition of edema formation in the hind paw of male albino rats (weighing 150-190 g.) in response to a sub-plantar injection of carrageenin. The carrageenin is injected as a 1% aqueous suspension (0.05 ml.) one hour after oral administration of the drug, which is normally given in the form of an aqueous solution. Edema formation is then assessed three hours after the carrageenin injection by measuring the volume of the injected paw initially as well as at the three-hour mark. The increase in volume three hours after carrageenin injection constitutes the individual response.
The following N-(2-thiazolyl)amides were tested for anti-inflammatory activity in rats, using the standard carrageen-ininduced rat food edema test, according to the procedure essentially described by C. A. Winter et al., as first reported in the Proceedings of the Society for Experimental Biology and Medicine, Vol. 111, p. 544 (1962). […]

[2] = system: inflammation in adrenalectomized animals; assay: anti-inflammatory activity in adrenalectomized animals; assay type: in vivo, rats
Source text: As previously indicated, the N-(2-thiazolyl)amide compounds of the present invention are all readily adapted to therapeutic use as anti-inflammatory agents and as immunoregulators, particularly in view of their ability to reduce the swelling and relieve the pain caused by arthritic and other inflammatory disorders that are normally associated with such basic ailments as rheumatoid arthritis and the like. […] A. Winter et al., Proc. Soc. Exp. Biol. Med., Vol. 111, p.

[3] = system: murine thymus cells; assay: lymphocyte stimulation assay (LSA), in vitro lymphocyte proliferation of murine thymus cells cultured in the presence of Concanavalin A; assay type: cell-based, male C57B1/6 mice; settings: in vitro; Con A present; 48 hours at 37° C.; score at drug level with maximum activity
Source text: On the other hand, the activity of the compounds of the present invention, as immunoregulator agents, is based on a study of their ability to stimulate, in vitro, the lymphocyte proliferation of murine thymus cells cultured in the presence of Concanavalin A (Con A) by employing the general evaluation procedure of V. J. Merluzzi et al., as described in the Journal of Clinical and Experimental Immunology, Vol. 22, p. 486 (1975).
486 (1975). The cells were derived from male C57B1/6 mice of from 6-8 weeks age, purchased from the Jackson Laboratories of Bar Harbor, Maine and the Con A was obtained from Sigma Chemicals of St. Louis, Missouri. Each cell culture (consisting of 0.10 ml. thymus cells stock solution, 0.05 ml. of Con A stock solution and 0.05 ml. of drug solution) was performed in quadruplicate and cellular proliferation was measured, after 48 hours of incubation at 37° C., by pulsing each culture with ^3 H-thymidine (0.01 ml. of specific activity 1.9 C/mM, obtained from Schwarz-Mann, Inc. of Orangeburg, N.Y.) and then determining the incorporation of ^3 H-thymidine into cellular desoxyribonucleic acid (DNA) by an assessment of radioactivity using a liquid scintillation counter.

## O=C(CNCc1ccccc1)Nc1nccs1 [X=H, R1=H, R2=benzyl, N-(2-thiazolyl)-α-benzylaminoacetamide]
[1]; rat, oral, 1.0 mg./kg.
  % Inhibition of edema formation (swelling): 35%
[1]; rat, oral, 33 mg./kg., three hours after carrageenin injection
  % Inhibition of edema formation: 52%
[1]; rats, tested orally
  oral dose levels at which the non-steroidal therapeutic effect is exhibited: 0.33 to 33 mg/kg
[2]
  anti-inflammatory activity in adrenalectomized animals: retaining its extremely potent anti-inflammatory activity in adrenalectomized animals to a significantly high degree
[3]
  LSA Activity: +++ (those having an activity greater than levamisole (27,000±1,000 cpm) were scored as +++)

— US4217355A, “Amide therapeutic agents” (Pfizer Inc., priority 1978, dated 1980)
